Laboratory results taken from patent US8088806B2 (Achillion Pharmaceuticals, Inc., priority 2005, dated 2012).
Like-named read-outs stand apart in the source and are kept apart here.

Test system: HCV replicon
Assay: Replicon based assay of HCV replication inhibition (NPT ELISA)
Format: cell-based, Hepatitis C virus
Details: Hepatitis C virus, read-out: Activity
Summary of the method: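 NPT (neomycin phosphotransferase) content, proportional to replicon replication, quantified by capture ELISA on day four. Before that, replicon-bearing Huh-7 cells in G418-free screening medium were exposed three days at 37° C to compound, typically six doses from 10 to 0.03 micromolar, with equal DMSO across wells.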

[1] = Huh-7, 72 h, Table III, Huh-7 HCV replicon-containing cells, three days
[2] = Huh-7, 72 h, Table I, Huh-7 HCV replicon-containing cells, three days

## CCCCCCCCOc1ccc(Nc2nc(-c3cncc(C(=O)N(C)C)c3)cs2)cc1 [compound 649, 5-(2-(4-(octyloxy)phenylamino)thiazol-4-yl)-N,N-dimethylpyridine-3-carboxamide]
[1]
  EC50: 1 to 10 µM

## CCCCOC(=O)c1ccc(Nc2nc(-c3cccnc3)cs2)cc1 [compound 107, butyl 4-(4-(pyridin-3-yl)thiazol-2-ylamino)benzoate]
[2]
  EC50: > 10 µM

## Cc1ccnc(Nc2nc(-c3c(C)nc4sccn34)cs2)c1 [compound 170, 4-methyl-N-(4-(6-methylimidazo[2,1-b]thiazol-5-yl)thiazol-2-yl)pyridin-2-amine]
[2]
  EC50: > 10 µM

## CCCCCCCCOc1ccc(Nc2nc(CC)cs2)cc1 [compound 391, 4-ethyl-N-(4-(octyloxy)phenyl)thiazol-2-amine]
Replicon based assay of HCV replication inhibition, Table II
  EC50: < 1 µM

## CCCCCCCCOc1ccc(Nc2nc(-c3cnccn3)cs2)cc1C(F)(F)F [compound 596, N-(3-(trifluoromethyl)-4-(octyloxy)phenyl)-4-(pyrazin-2-yl)thiazol-2-amine]
[1]
  EC50: < 1 µM

## CCCCCCCCc1ccc(Nc2nc(-c3cccnc3)cs2)cc1C(F)(F)F [compound 825, N-(3-(trifluoromethyl)-4-octylphenyl)-4-(pyridin-3-yl)thiazol-2-amine]
Replicon based assay of HCV replication inhibition, Table IV
  EC50: < 1 µM

## CCCCCOc1ccc(N(C)c2nc(C(=O)Nc3ccc(C#N)cc3)cs2)cc1C(F)(F)F [compound 160, 2-(N-(3-(trifluoromethyl)-4-(pentyloxy)phenyl)-N-methylamino)-N-(4-cyanophenyl)thiazole-4-carboxamide]
[2]
  EC50: > 10 µM
